From US8933230B2, “Phosphorus-containing group-substituted quinoline, its preparation process, medical composition containing the compounds and application” (priority 2011, dated 2015)

Columns and labels:
Experiment in all cases: KinomeScan kinase panel
Type in all cases: binding
PAK4 = target: T1, PAK4 (Homo sapiens, UniProt O96013)
T1 construct: purchased DiscoveRx Corporation (KinomeScan panel)
Summary of the method: (§1)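 Panel screen (KinomeScan, 442 kinases). One test concentration, 1000 nM; no dose-response.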

EGFR(S752-1759del) = target: T2, EGFR(S752-1759del) (Homo sapiens, UniProt P00533, DEL752-759)
T2 construct: purchased DiscoveRx Corporation (KinomeScan)
Summary of the method: as §1

RIPK5 = target: T3, RIPK5 (Homo sapiens, UniProt Q6XUX3)
T3 construct: purchased DiscoveRx Corporation
Summary of the method: as §1

P38-gamma = target: T4, P38-gamma (Homo sapiens, UniProt P53778)
T4 construct: purchased DiscoveRx Corporation (KinomeScan panel)
Summary of the method: as §1

AURKC = target: T5, AURKC (Homo sapiens, UniProt Q9UQB9)
T5 construct: purchased DiscoveRx Corporation (KinomeScan)
Summary of the method: as §1

DAPK1 = target: T6, DAPK1 (Homo sapiens, UniProt P53355)
T6 construct: purchased DiscoveRx Corporation (KinomeScan)
Summary of the method: as §1

EGFR(L858R) = target: T7, EGFR(L858R) (Homo sapiens, UniProt P00533, L858R)
T7 construct: purchased DiscoveRx Corporation (KinomeScan)
Summary of the method: as §1

BRSK1 = target: T8, BRSK1 (Homo sapiens, UniProt Q8TDC3)
T8 construct: purchased DiscoveRx Corporation (KinomeScan)
Summary of the method: as §1

MAK = target: T9, MAK (Homo sapiens, UniProt P20794)
T9 construct: purchased DiscoveRx Corporation (KinomeScan)
Summary of the method: as §1

EPHA1 = target: T10, EPHA1 (Homo sapiens, UniProt P21709)
T10 construct: purchased DiscoveRx Corporation (KinomeScan)
Summary of the method: as §1

CDKL1 = target: T11, CDKL1 (Homo sapiens, UniProt Q00532)
T11 construct: purchased DiscoveRx Corporation (KinomeScan)
Summary of the method: as §1

CSNK2A1 = target: T12, CSNK2A1 (Homo sapiens, UniProt P68400)
T12 construct: purchased DiscoveRx Corporation (KinomeScan)
Summary of the method: as §1

FGFR1 = target: T13, FGFR1 (Homo sapiens, UniProt P11362)
T13 construct: purchased DiscoveRx Corporation (KinomeScan)
Summary of the method: as §1

PRKD3 = target: T14, PRKD3 (Homo sapiens, UniProt O94806)
T14 construct: purchased DiscoveRx Corporation (KinomeScan)
Summary of the method: as §1

DCAMKL2 = target: T15, DCAMKL2 (Homo sapiens, UniProt Q8N568)
T15 construct: purchased DiscoveRx Corporation (KinomeScan)
Summary of the method: as §1

PDGFRB = target: T16, PDGFRB (Homo sapiens, UniProt P09619)
T16 construct: purchased DiscoveRx Corporation (KinomeScan panel)
Summary of the method: as §1

BRAF = target: T17, BRAF (Homo sapiens, UniProt P15056)
T17 construct: purchased DiscoveRx Corporation (KinomeScan)
Summary of the method: as §1

NEK5 = target: T18, NEK5 (Homo sapiens, UniProt Q6P3R8)
T18 construct: purchased DiscoveRx Corporation (KinomeScan panel)
Summary of the method: as §1

TAOK3 = target: T19, TAOK3 (Homo sapiens, UniProt Q9H2K8)
T19 construct: purchased DiscoveRx Corporation (KinomeScan)
Summary of the method: as §1

CSF1R = target: T20, CSF1R (Homo sapiens, UniProt P07333)
T20 construct: purchased DiscoveRx Corporation (KinomeScan)
Summary of the method: as §1

P38-delta = target: T21, P38-delta (Homo sapiens, UniProt O15264)
T21 construct: purchased DiscoveRx Corporation (KinomeScan panel)
Summary of the method: as §1

FYN = target: T22, FYN (Homo sapiens, UniProt P06241)
T22 construct: purchased DiscoveRx Corporation (KinomeScan)
Summary of the method: as §1

RET (M918T) = target: T23, RET (M918T) (Homo sapiens, UniProt P07949, M918T)
T23 construct: purchased DiscoveRx Corporation
Summary of the method: as §1

CAMK4 = target: T24, CAMK4 (Homo sapiens, UniProt Q16566)
T24 construct: purchased DiscoveRx Corporation (KinomeScan)
Summary of the method: as §1

PHKG1 = target: T25, PHKG1 (Homo sapiens, UniProt Q16816)
T25 construct: purchased DiscoveRx Corporation (KinomeScan)
Summary of the method: as §1

[1] = target: T26, ABL1(M351T)-phosphorylated (Homo sapiens, UniProt P00519, M351T)
T26 construct: purchased DiscoveRx Corporation (KinomeScan)
Summary of the method: as §1

IKK-beta = target: T27, IKK-beta (Homo sapiens, UniProt O14920)
T27 construct: purchased DiscoveRx Corporation (KinomeScan)
Summary of the method: as §1

EGFR(L747-S752del,P753S) = target: T28, EGFR(L747-S752del,P753S) (Homo sapiens, UniProt P00533, DEL747-752/P753S)
T28 construct: purchased DiscoveRx Corporation (KinomeScan)
Summary of the method: as §1

WEE2 = target: T29, WEE2 (Homo sapiens, UniProt P0C1S8)
T29 construct: purchased DiscoveRx Corporation (KinomeScan service)
Summary of the method: as §1

EPHB4 = target: T30, EPHB4 (Homo sapiens, UniProt P54760)
T30 construct: purchased DiscoveRx Corporation (KinomeScan)
Summary of the method: as §1

ERBB3 = target: T31, ERBB3 (Homo sapiens, UniProt P21860)
T31 construct: purchased DiscoveRx Corporation (KinomeScan)
Summary of the method: as §1

ERBB2 = target: T32, ERBB2 (Homo sapiens, UniProt P04626)
T32 construct: purchased DiscoveRx Corporation (KinomeScan)
Summary of the method: as §1

CSNK1G1 = target: T33, CSNK1G1 (Homo sapiens, UniProt Q9HCP0)
T33 construct: purchased DiscoveRx Corporation (KinomeScan)
Summary of the method: as §1

JNK2 = target: T34, JNK2 (Homo sapiens, UniProt P45984)
T34 construct: purchased DiscoveRx Corporation (KinomeScan)
Summary of the method: as §1

CDK4-cyclinD1 = target: T35, CDK4-cyclinD1 (Homo sapiens, UniProt P11802)
T35 construct: purchased DiscoveRx Corporation (KinomeScan)
Summary of the method: as §1

T16 sequence (P09619 33-1106): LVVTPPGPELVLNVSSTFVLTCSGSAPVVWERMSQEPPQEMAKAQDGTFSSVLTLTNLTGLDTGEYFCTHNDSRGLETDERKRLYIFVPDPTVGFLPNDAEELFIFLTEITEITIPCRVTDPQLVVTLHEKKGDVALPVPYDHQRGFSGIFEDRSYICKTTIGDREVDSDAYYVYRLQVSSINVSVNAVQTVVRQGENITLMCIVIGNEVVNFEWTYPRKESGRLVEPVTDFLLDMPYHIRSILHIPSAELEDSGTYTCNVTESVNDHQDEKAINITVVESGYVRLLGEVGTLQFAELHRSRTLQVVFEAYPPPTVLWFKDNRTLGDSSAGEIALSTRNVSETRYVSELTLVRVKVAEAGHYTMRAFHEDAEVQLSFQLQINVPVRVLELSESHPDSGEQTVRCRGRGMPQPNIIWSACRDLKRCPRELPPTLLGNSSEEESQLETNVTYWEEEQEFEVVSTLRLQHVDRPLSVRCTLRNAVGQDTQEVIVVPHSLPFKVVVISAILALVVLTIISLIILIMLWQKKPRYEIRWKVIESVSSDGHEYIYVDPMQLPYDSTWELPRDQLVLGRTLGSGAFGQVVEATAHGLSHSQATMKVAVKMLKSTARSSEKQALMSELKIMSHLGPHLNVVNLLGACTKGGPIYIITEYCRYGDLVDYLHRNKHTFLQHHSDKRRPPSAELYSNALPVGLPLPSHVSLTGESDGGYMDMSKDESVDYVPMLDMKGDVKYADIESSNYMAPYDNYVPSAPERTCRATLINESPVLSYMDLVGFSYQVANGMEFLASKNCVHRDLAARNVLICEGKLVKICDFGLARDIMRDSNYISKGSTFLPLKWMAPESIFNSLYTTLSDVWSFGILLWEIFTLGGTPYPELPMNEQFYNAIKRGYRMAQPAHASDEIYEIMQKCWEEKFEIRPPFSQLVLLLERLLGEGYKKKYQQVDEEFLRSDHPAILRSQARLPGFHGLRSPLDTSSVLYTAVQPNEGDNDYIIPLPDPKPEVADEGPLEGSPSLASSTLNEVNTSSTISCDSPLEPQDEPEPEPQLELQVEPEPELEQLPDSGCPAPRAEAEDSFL
T9 sequence (P20794 whole entry): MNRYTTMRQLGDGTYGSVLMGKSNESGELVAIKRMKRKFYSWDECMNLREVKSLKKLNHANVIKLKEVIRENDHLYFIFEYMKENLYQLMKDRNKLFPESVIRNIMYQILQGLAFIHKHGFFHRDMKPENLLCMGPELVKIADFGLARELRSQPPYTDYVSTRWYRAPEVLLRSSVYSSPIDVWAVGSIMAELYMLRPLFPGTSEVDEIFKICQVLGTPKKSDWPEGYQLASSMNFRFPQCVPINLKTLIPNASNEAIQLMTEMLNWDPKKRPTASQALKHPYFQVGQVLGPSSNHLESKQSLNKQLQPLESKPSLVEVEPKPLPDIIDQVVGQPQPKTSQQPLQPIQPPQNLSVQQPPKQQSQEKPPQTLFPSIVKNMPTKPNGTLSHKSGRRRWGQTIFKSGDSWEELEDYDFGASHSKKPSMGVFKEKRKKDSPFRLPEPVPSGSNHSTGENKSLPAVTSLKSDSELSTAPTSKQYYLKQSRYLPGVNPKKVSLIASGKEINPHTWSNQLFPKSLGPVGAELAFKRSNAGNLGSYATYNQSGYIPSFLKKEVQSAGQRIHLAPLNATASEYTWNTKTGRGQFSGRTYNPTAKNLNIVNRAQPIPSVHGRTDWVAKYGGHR
T24 sequence (Q16566 whole entry): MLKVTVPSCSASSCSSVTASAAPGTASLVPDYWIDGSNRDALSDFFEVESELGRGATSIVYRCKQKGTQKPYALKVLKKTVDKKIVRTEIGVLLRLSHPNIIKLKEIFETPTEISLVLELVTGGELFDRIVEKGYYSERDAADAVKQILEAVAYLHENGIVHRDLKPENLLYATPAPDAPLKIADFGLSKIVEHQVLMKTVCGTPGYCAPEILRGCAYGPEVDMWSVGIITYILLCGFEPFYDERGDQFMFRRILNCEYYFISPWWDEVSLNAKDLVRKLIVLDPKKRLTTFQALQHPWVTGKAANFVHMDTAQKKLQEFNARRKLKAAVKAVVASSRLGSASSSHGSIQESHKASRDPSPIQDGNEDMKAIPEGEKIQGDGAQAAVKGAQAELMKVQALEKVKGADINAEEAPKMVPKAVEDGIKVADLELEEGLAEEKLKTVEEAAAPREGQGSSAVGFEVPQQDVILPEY
T15 sequence (Q8N568 whole entry): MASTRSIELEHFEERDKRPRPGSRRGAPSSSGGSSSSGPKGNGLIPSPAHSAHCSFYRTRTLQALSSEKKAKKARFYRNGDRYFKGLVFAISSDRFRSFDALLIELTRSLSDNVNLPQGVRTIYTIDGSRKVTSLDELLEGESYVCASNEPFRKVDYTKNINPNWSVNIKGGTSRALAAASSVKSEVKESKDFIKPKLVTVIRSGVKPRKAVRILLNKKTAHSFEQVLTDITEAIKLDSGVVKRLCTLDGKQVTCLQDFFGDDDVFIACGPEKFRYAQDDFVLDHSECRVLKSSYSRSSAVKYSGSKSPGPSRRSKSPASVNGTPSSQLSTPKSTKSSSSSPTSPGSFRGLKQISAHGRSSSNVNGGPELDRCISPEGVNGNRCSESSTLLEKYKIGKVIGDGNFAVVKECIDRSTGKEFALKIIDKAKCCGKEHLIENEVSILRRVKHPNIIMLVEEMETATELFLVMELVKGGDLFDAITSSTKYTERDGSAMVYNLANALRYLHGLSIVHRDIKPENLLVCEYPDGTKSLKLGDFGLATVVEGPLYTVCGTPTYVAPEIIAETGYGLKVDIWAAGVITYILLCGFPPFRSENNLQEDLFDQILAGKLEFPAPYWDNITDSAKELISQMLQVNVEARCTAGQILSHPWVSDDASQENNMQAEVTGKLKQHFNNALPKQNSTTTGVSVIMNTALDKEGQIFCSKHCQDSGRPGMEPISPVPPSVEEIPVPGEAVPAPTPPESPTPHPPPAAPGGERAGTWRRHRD
T22 sequence (P06241 whole entry): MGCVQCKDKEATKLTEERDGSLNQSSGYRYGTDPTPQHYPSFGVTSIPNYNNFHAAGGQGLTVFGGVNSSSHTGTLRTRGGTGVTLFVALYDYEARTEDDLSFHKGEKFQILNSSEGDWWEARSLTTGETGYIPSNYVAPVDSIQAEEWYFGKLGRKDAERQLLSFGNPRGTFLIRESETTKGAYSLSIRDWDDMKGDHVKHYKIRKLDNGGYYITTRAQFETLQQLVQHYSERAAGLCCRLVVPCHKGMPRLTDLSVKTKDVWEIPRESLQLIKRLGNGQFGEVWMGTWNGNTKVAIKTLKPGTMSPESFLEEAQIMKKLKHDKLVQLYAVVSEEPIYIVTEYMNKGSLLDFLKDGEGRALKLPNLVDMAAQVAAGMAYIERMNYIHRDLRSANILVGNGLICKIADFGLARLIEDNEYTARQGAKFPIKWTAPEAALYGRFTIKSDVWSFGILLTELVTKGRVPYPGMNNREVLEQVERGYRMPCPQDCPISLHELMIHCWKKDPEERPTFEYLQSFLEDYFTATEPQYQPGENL
T30 sequence (P54760 16-987): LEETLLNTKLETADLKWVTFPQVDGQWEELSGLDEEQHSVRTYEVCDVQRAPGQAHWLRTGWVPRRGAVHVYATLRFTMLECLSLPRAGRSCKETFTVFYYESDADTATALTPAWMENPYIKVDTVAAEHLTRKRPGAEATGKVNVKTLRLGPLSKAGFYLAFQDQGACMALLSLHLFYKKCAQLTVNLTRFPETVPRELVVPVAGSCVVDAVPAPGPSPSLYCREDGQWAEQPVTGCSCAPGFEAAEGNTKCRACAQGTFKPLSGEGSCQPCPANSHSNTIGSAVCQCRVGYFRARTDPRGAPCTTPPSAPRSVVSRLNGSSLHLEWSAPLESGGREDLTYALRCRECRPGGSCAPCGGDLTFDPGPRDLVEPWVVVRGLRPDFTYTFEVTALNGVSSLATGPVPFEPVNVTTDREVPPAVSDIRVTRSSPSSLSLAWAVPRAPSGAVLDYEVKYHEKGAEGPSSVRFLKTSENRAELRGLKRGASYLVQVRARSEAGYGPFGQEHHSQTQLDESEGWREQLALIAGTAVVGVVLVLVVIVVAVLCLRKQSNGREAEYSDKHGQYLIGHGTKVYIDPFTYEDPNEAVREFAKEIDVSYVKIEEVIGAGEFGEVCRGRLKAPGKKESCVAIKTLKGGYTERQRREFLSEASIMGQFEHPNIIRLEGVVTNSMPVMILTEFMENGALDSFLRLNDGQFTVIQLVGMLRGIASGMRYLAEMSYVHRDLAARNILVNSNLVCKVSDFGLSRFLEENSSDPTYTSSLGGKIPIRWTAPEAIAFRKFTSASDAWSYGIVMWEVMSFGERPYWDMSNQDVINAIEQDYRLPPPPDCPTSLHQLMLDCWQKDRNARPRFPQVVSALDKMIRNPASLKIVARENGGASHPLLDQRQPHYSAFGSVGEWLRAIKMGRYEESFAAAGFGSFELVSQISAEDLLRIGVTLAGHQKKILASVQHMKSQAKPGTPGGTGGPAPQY
T11 sequence (Q00532 whole entry): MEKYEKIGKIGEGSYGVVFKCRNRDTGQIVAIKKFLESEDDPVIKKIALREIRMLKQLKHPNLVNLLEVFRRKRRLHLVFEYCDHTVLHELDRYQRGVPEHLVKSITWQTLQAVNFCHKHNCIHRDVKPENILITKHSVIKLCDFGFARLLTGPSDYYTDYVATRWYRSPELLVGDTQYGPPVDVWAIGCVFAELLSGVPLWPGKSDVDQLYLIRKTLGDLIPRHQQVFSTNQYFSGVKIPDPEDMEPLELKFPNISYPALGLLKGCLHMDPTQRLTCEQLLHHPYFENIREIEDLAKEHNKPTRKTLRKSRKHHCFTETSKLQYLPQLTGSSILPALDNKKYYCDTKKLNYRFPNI

CCOP(=O)(CN1CCC(COc2cc3nccc(Oc4ccc(NC(=O)C5(C(=O)Nc6ccc(F)cc6)CC5)cc4F)c3cc2OC)CC1)OCC [Example 10, N1-[4-[[7-[[1-(diethoxyphosphorylmethyl)-4-piperidinyl]methoxyl]-6-methoxyl-4-quinolyl]oxyl]-3-fluorophenyl]-N1′-(4-fluorophenyl)cyclopropane-1,1-dicarboxamide]
% Ctrl@1000 nM (PAK4): 100 % Ctrl | % Ctrl@1000 nM (EGFR(S752-1759del)): 82 % Ctrl | % Ctrl@1000 nM (RIPK5): 82 % Ctrl | % Ctrl@1000 nM (P38-gamma): 100 % Ctrl | % Ctrl@1000 nM (AURKC): 66 % Ctrl | % Ctrl@1000 nM (DAPK1): 100 % Ctrl | % Ctrl@1000 nM (EGFR(L858R)): 59 % Ctrl | % Ctrl@1000 nM (BRSK1): 100 % Ctrl | % Ctrl@1000 nM (MAK): 100 % Ctrl | % Ctrl@1000 nM (EPHA1): 4.6 % Ctrl | % Ctrl@1000 nM (CDKL1): 100 % Ctrl | % Ctrl@1000 nM (CSNK2A1): 100 % Ctrl | % Ctrl@1000 nM (FGFR1): 100 % Ctrl | % Ctrl@1000 nM (PRKD3): 88 % Ctrl | % Ctrl@1000 nM (DCAMKL2): 100 % Ctrl | % Ctrl@1000 nM (PDGFRB): 0 % Ctrl | % Ctrl@1000 nM (BRAF): 100 % Ctrl | % Ctrl@1000 nM (NEK5): 97 % Ctrl | % Ctrl@1000 nM (TAOK3): 100 % Ctrl | % Ctrl@1000 nM (CSF1R): 0.25 % Ctrl | % Ctrl@1000 nM (P38-delta): 53 % Ctrl | % Ctrl@1000 nM (FYN): 48 % Ctrl | % Ctrl@1000 nM (RET (M918T)): 0.05 % Ctrl | % Ctrl@1000 nM (CAMK4): 100 % Ctrl | % Ctrl@1000 nM (PHKG1): 100 % Ctrl | % Ctrl@1000 nM [1]: 42 % Ctrl | % Ctrl@1000 nM (IKK-beta): 100 % Ctrl | % Ctrl@1000 nM (EGFR(L747-S752del,P753S)): 67 % Ctrl | % Ctrl@1000 nM (WEE2): 100 % Ctrl | % Ctrl@1000 nM (EPHB4): 12 % Ctrl | % Ctrl@1000 nM (ERBB3): 98 % Ctrl | % Ctrl@1000 nM (ERBB2): 96 % Ctrl | % Ctrl@1000 nM (CSNK1G1): 100 % Ctrl | % Ctrl@1000 nM (JNK2): 93 % Ctrl | % Ctrl@1000 nM (CDK4-cyclinD1): 100 % Ctrl
